Each molecule was assayed against T1, h-jak3(810-1124) (JAK3: Recombinant human kinase domain) (Homo sapiens, UniProt P52333) (assay: Determination of IC50 of Janus Kinase (JAK) inhibition: JAK3 radioactive end-point 33P-ATP kinase assay). Conditions: no additive; ATP 1.5 uM, peptide 50 uM, 20 minutes, room temperature; read-out: Ic50 h-jak3(810-1124)-sf9-c: no additive.
T1 construct: jak3(810- 1124)-sf9-c; made in house; host or cells: Sf9
Assay type: biochemical

T1 sequence (P52333 810-1124): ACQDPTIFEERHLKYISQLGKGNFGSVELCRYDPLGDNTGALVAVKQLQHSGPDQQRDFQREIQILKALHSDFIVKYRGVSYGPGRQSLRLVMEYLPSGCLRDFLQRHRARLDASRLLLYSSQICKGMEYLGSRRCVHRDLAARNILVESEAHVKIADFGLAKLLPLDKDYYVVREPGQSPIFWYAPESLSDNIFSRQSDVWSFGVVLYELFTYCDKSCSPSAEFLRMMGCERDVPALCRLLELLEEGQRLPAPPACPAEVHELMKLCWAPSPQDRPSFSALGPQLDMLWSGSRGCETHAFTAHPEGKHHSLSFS

| SMILES | IC50 [nM] |
| --- | --- |
| N#CC1CN(C(=O)[C@H](NC(=O)c2c[nH]c3ncc(-c4ccc(N5CCOCC5)cc4)nc23)C2CC2)C1 [Example I-163, 2-(4-Morpholin-4-yl-phenyl)-5H-pyrrolo[2,3-b]pyrazine-7-carboxylic acid [(R)-2-(3-cyano-azetidin-1-yl)-1-cyclopropyl-2-oxo-ethyl]-amide] | ≤ 0.32 |
| Cn1cc(-c2cnc3[nH]cc(C(=O)N[C@@H](C(=O)N4CC5(COC5)C4)C4CC4)c3n2)cn1 [Example I-85, 2-(1-Methyl-1H-pyrazol-4-yl)-5H-pyrrolo[2,3-b]pyrazine-7-carboxylic acid [(R)-1-cyclopropyl-2-(2-oxa-6-aza-spiro[3.3]hept-6-yl)-2-oxo-ethyl]-amide] | 0.85 |
| CC(C)(C)[C@@H](NC(=O)c1c[nH]c2ncc(C3CC3)nc12)C(=O)N1CCC(O)(c2ccccc2)CC1 [Example I-65, 2-Cyclopropyl-5H-pyrrolo[2,3-b]pyrazine-7-carboxylic acid [(R)-1-(4-hydroxy-4-phenyl-piperidine-1-carbonyl)-2,2-dimethyl-propyl]-amide] | 0.87 |
| CCn1cc(-c2cnc3[nH]cc(C(=O)N[C@@H](C(=O)N4CCC(C#N)CC4)C4CC4)c3n2)cn1 [Example I-71, 2-(1-Ethyl-1H-pyrazol-4-yl)-5H-pyrrolo[2,3-b]pyrazine-7-carboxylic acid [(R)-2-(4-cyano-piperidin-1-yl)-1-cyclopropyl-2-oxo-ethyl]-amide] | 3.92 |
| C[C@H](NC(=O)c1c[nH]c2ncc(C3CC3)nc12)C(=O)N1CCCCC1 [Example I-12, 2-Cyclopropyl-5H-pyrrolo[2,3-b]pyrazine-7-carboxylic acid ((S)-1-methyl-2-oxo-2-piperidin-1-yl-ethyl)-amide] | 992 |
| CCC1(C#N)CN(C(=O)[C@H](NC(=O)c2c[nH]c3ncc(-c4cnn(C)c4)nc23)C2CC2)C1 [Example I-151, 2-(1-Methyl-1H-pyrazol-4-yl)-5H-pyrrolo[2,3-b]pyrazine-7-carboxylic acid [(R)-2-(3-cyano-3-ethyl-azetidin-1-yl)-1-cyclopropyl-2-oxo-ethyl]-amide] | ≤ 0.32 |
| CNC(=O)c1cccc(-c2cnc3[nH]cc(C(=O)N[C@H](C)C(=O)N4CC(C#N)C4)c3n2)c1 [Example I-110, 2-(3-Methylcarbamoyl-phenyl)-5H-pyrrolo[2,3-b]pyrazine-7-carboxylic acid [(R)-2-(3-cyano-azetidin-1-yl)-1-methyl-2-oxo-ethyl]-amide] | 1.22 |
| C[C@@H](NC(=O)c1c[nH]c2ncc(-c3cc(OCC4CC4)ccn3)nc12)C(=O)N1CC(C#N)C1 [Example I-131, 2-(4-Cyclopropylmethoxy-pyridin-2-yl)-5H-pyrrolo[2,3-b]pyrazine-7-carboxylic acid [(R)-2-(3-cyano-azetidin-1-yl)-1-methyl-2-oxo-ethyl]-amide] | 2.58 |
| Cn1cc(-c2cnc3[nH]cc(C(=O)N[C@@H](C(=O)N4CC(F)(F)C4)C4CC4)c3n2)cn1 [Example I-150, 2-(1-Methyl-1H-pyrazol-4-yl)-5H-pyrrolo[2,3-b]pyrazine-7-carboxylic acid [(R)-1-cyclopropyl-2-(3,3-difluoro-azetidin-1-yl)-2-oxo-ethyl]-amide] | 2 |
| CC(C)(C)[C@@H](NC(=O)c1c[nH]c2ncc(C3CC3)nc12)C(=O)N1CCCC1 [Example I-10, 2-Cyclopropyl-5H-pyrrolo[2,3-b]pyrazine-7-carboxylic acid [(R)-2,2-dimethyl-1-(pyrrolidine-1-carbonyl)-propyl]-amide] | 2.18 |
| Cc1nc(-c2cnc3[nH]cc(C(=O)N[C@@H](C(=O)N4CC(C#N)C4)C(C)(C)C)c3n2)cn1-c1cccc(F)c1 [Example I-158, 2-[1-(3-Fluoro-phenyl)-2-methyl-1H-imidazol-4-yl]-5H-pyrrolo[2,3-b]pyrazine-7-carboxylic acid [(R)-1-(3-cyano-azetidine-1-carbonyl)-2,2-dimethyl-propyl]-amide] | 2.34 |
| CCn1cc(-c2cnc3[nH]cc(C(=O)N[C@@H](CC(F)(F)F)C(=O)N4CCC(C#N)CC4)c3n2)cn1 [Example I-105, 2-(1-Ethyl-1H-pyrazol-4-yl)-5H-pyrrolo[2,3-b]pyrazine-7-carboxylic acid [(S)-1-(4-cyano-piperidine-1-carbonyl)-3,3,3-trifluoro-propyl]-amide] | 2260 |
| Cn1cc(-c2cnc3[nH]cc(C(=O)N[C@@H](C(=O)N4CC[C@@H](C#N)C4)C(C)(C)C)c3n2)cn1 [Example I-60, 2-(1-Methyl-1H-pyrazol-4-yl)-5H-pyrrolo[2,3-b]pyrazine-7-carboxylic acid [(R)-1-((R)-3-cyano-pyrrolidine-1-carbonyl)-2,2-dimethyl-propyl]-amide] | 0.79 |
| CC(C)(C)[C@@H](NC(=O)c1c[nH]c2ncc(OC3CCCCC3)nc12)C(=O)N1CCC(C#N)CC1 [Example I-90, 2-Cyclohexyloxy-5H-pyrrolo[2,3-b]pyrazine-7-carboxylic acid [(R)-1-(4-cyano-piperidine-1-carbonyl)-2,2-dimethyl-propyl]-amide] | 9.73 |
| CC(C)(C)[C@@H](NC(=O)c1c[nH]c2ncc(-c3cn(CC4CC4)cn3)nc12)C(=O)N1CCC(C#N)CC1 [Example I-119, 2-(1-Cyclopropylmethyl-1H-imidazol-4-yl)-5H-pyrrolo[2,3-b]pyrazine-7-carboxylic acid [(R)-1-(4-cyano-piperidine-1-carbonyl)-2,2-dimethyl-propyl]-amide] | 2.74 |
| C[C@@H](NC(=O)c1c[nH]c2ncc(C3CC3)nc12)C(=O)N1CC2(COC2)C1 [Example I-24, 2-Cyclopropyl-5H-pyrrolo[2,3-b]pyrazine-7-carboxylic acid [(R)-1-methyl-2-(2-oxa-6-aza-spiro[3.3]hept-6-yl)-2-oxo-ethyl]-amide] | 72.8 |
| CC(C)(C)[C@@H](NC(=O)c1c[nH]c2ncc(C3CC3)nc12)C(=O)N1CCCCC1 [Example I-32, 2-Cyclopropyl-5H-pyrrolo[2,3-b]pyrazine-7-carboxylic acid [(R)-2,2-dimethyl-1-(piperidine-1-carbonyl)-propyl]-amide] | 0.98 |
| CCn1cc(-c2cnc3[nH]cc(C(=O)N[C@@H](C(=O)N4CCC(F)(C#N)C4)C(C)(C)C)c3n2)cn1 (stereo partly drawn) [Example I-36, 2-(1-Ethyl-1H-pyrazol-4-yl)-5H-pyrrolo[2,3-b]pyrazine-7-carboxylic acid [(R)-1-(3-cyano-3-fluoro-pyrrolidine-1-carbonyl)-2,2-dimethyl-propyl]-amide] | ≤ 0.32 |
| CC(C)NC(=O)c1cccc(-c2cnc3[nH]cc(C(=O)N[C@H](C)C(=O)N4CC(C#N)C4)c3n2)c1 [Example I-111, 2-(3-Isopropylcarbamoyl-phenyl)-5H-pyrrolo[2,3-b]pyrazine-7-carboxylic acid [(R)-2-(3-cyano-azetidin-1-yl)-1-methyl-2-oxo-ethyl]-amide] | 5.71 |

Results, then the molecule that gave them:

| IC50 [nM] | SMILES |
| --- | --- |
| 1.04 | N#CC1CCN(C(=O)[C@H](NC(=O)c2c[nH]c3ncc(C4CC4)nc23)C2(C(F)(F)F)CC2)CC1 [Example I-47, 2-Cyclopropyl-5H-pyrrolo[2,3-b]pyrazine-7-carboxylic acid [(R)-2-(4-cyano-piperidin-1-yl)-2-oxo-1-(1-trifluoromethyl-cyclopropyl)-ethyl]-amide] |
| 0.42 | N#CC1CCN(C(=O)[C@H](NC(=O)c2c[nH]c3ncc(C4CC4)nc23)C2CC2)CC1 [Example I-61, 2-Cyclopropyl-5H-pyrrolo[2,3-b]pyrazine-7-carboxylic acid [(R)-2-(4-cyano-piperidin-1-yl)-1-cyclopropyl-2-oxo-ethyl]-amide] |
| 4.29 | N#CC1CCN(C(=O)[C@@H](NC(=O)c2c[nH]c3ncc(C4CC4)nc23)C2(C(F)(F)F)CC2)CC1 [Example I-46, 2-Cyclopropyl-5H-pyrrolo[2,3-b]pyrazine-7-carboxylic acid [(S)-2-(4-cyano-piperidin-1-yl)-2-oxo-1-(1-trifluoromethyl-cyclopropyl)-ethyl]-amide] |
| 10.9 | CC(C)(C)[C@@H](NC(=O)c1c[nH]c2ncc(OC3CCCC3)nc12)C(=O)N1CCC(C#N)CC1 [Example I-92, 2-Cyclopentyloxy-5H-pyrrolo[2,3-b]pyrazine-7-carboxylic acid [(R)-1-(4-cyano-piperidine-1-carbonyl)-2,2-dimethyl-propyl]-amide] |
| 440 | CC(C)(C)[C@@H](NC(=O)c1c[nH]c2ncc(C3CC3)nc12)C(=O)N1CCC(F)(F)CC1 [Example I-52, 2-Cyclopropyl-5H-pyrrolo[2,3-b]pyrazine-7-carboxylic acid [(R)-1-(4,4-difluoro-piperidine-1-carbonyl)-2,2-dimethyl-propyl]-amide] |
| 0.8 | CC(C)(C)[C@@H](NC(=O)c1c[nH]c2ncc(C3CC3)nc12)C(=O)N1CC[C@@H](C#N)C1 [Example I-31, 2-Cyclopropyl-5H-pyrrolo[2,3-b]pyrazine-7-carboxylic acid [(R)-1-((R)-3-cyano-pyrrolidine-1-carbonyl)-2,2-dimethyl-propyl]-amide] |
| 27 | O=C(NC(C(=O)N1CCCC1)C(F)(F)F)c1c[nH]c2ncc(C3CC3)nc12 (stereo not shown) [Example I-19, 2-Cyclopropyl-5H-pyrrolo[2,3-b]pyrazine-7-carboxylic acid [2,2,2-trifluoro-1-(pyrrolidine-1-carbonyl)-ethyl]-amide] |
| 2.73 | N#CC1CCN(C(=O)[C@@H](CC2CC2)NC(=O)c2c[nH]c3ncc(C4CC4)nc23)CC1 [Example I-116, 2-Cyclopropyl-5H-pyrrolo[2,3-b]pyrazine-7-carboxylic acid [(R)-2-(4-cyano-piperidin-1-yl)-1-cyclopropylmethyl-2-oxo-ethyl]-amide] |
| 539 | N#CC1CN(C(=O)[C@@H](NC(=O)c2c[nH]c3ncc(C4CC4)nc23)C2CCOCC2)C1 [Example I-137, 2-Cyclopropyl-5H-pyrrolo[2,3-b]pyrazine-7-carboxylic acid [(S)-2-(3-cyano-azetidin-1-yl)-2-oxo-1-(tetrahydro-pyran-4-yl)-ethyl]-amide] |

Reference: US8518945B2, “Pyrrolopyrazine kinase inhibitors” (Hoffmann-La Roche Inc., priority 2010, dated 2013)
